Measured values published in US20240325341A1, “ANTI-BACTERIAL EFFECT OF HALOGENATED FLUORESCEINS AGAINST COLISTIN-RESISTANT GRAM-NEGATIVE BACTERIA” (priority 2023, published 2024).
Converted amounts (≈) assume the structure as drawn. Read-outs that look alike come from different tables or passages of the source.

Columns and labels:
Format in all cases: cell-based
[1] = test system: colistin-resistant Gram-negative bacteria; conditions: under a fluorescent light
[2] = test system: Serratia sp. strain Ag2 (Wild-type); test: MIC by broth dilution
[3] = test system: Pseudomonas aeruginosa MRSN 1356 (NR51521) colistin-resistant strain; test: microbe, parasite or virus in culture; conditions: 24 h
[4] = test system: Klebsiella pneumoniae colistin-resistant strain; test: microbe, parasite or virus in culture; conditions: Klebsiella pneumoniae, ATCC19606, 24 h
[5] = test system: Burkholderia multivorans CGD1 (wild type); test: MIC by broth dilution; conditions: 24 h
[6] = test system: Acinetobacter baumannii (ATCC BAA1800); test: MIC by broth dilution
[7] = test system: Klebsiella pneumoniae (CRE) CHS 67 (NR48569) colistin-resistant strain; test: microbe, parasite or virus in culture; conditions: 24 h
[8] = test system: Pseudomonas aeruginosa (ATCC 27853) - intermediate colistin-resistant strain; test: microbe, parasite or virus in culture
[9] = test system: Burkholderia multivorans CGD1 colistin-resistant strain; test: microbe, parasite or virus in culture; conditions: broth dilution, 24 h, entry 21
[10] = test system: Salmonella enterica Pennsylvania, Serovar Typhimurium, Isolate 1 (NR4333) colistin-resistant strain; test: microbe, parasite or virus in culture; conditions: 24 h
[11] = test system: Pseudomonas aeruginosa (ATCC 27853) - high colistin-resistant strain; test: microbe, parasite or virus in culture
[12] = test system: Burkholderia thailandensis E264 colistin-resistant strain; test: microbe, parasite or virus in culture
[13] = test system: Escherichia coli serotype O157 (TW07793); test: microbe, parasite or virus in culture; conditions: broth dilution, 24 h, entry 3
[14] = test system: Klebsiella pneumoniae (ATCC 19606); test: MIC by broth dilution; conditions: Klebsiella pneumoniae, ATCC19606, 24 h, entry 9
[15] = test system: Acinetobacter baumannii (ATCC BAA1800) colistin-resistant strain; test: microbe, parasite or virus in culture
[16] = test system: Serratia sp. strain Ag2 colistin-resistant strain; test: microbe, parasite or virus in culture; conditions: 24 h
[17] = test system: Salmonella enterica subsp. enterica Typhimurium (BAA 2721) intermediate colistin-resistant strain; test: microbe, parasite or virus in culture; conditions: 24 h
[18] = test system: E. coli ATCC35218 colistin^R; conditions: 30 min; reference molecule at 10 mg/mL
[19] = test system: Burkholderia thailandensis E264 (Wild type); test: microbe, parasite or virus in culture; conditions: 24 h
[20] = test system: Escherichia coli (ATCC 35218) colistin-resistant strain; test: microbe, parasite or virus in culture
[21] = test system: Acinetobacter baumannii (ATCC19606) colistin-resistant strain; test: microbe, parasite or virus in culture
[22] = test system: Escherichia coli serotype O157 (TW07793) colistin-resistant strain; test: microbe, parasite or virus in culture; conditions: 24 h
[23] = test system: Proteus mirabilis urine strain WGLW4 (Wild type); test: MIC by broth dilution; conditions: 24 h
[24] = test system: Pseudomonas aeruginosa MRSN 1380 (NR51522); test: MIC by broth dilution; conditions: 24 h
[25] = test system: Klebsiella pneumoniae (CRE) CHS 67 (NR48569); test: MIC by broth dilution; conditions: 24 h
[26] = test system: Pseudomonas aeruginosa MRSN 1380 (NR51522) colistin-resistant strain; test: microbe, parasite or virus in culture; conditions: 24 h
[27] = test system: Salmonella enterica subsp. enterica Typhimurium (BAA 2721) (Wild type); test: MIC by broth dilution; conditions: 24 h
[28] = test system: Pseudomonas aeruginosa MRSN 1356 (NR51521); test: MIC by broth dilution; conditions: 24 h
[29] = test system: Burkholderia cepacia genomovar III, LMG16656 (wild type); test: microbe, parasite or virus in culture
[30] = test system: Pseudomonas aeruginosa (ATCC 27853); test: MIC by broth dilution
[31] = test system: Salmonella enterica Pennsylvania, Serovar Typhimurium, Isolate 1 (NR4333); test: MIC by broth dilution; conditions: 24 h
[32] = test system: Proteus mirabilis urine strain WGLW4 colistin-resistant strain; test: microbe, parasite or virus in culture; conditions: 24 h
[33] = test system: Burkholderia cepacia genomovar III, LMG16656 colistin-resistant strain; test: microbe, parasite or virus in culture; conditions: broth dilution, 24 h, entry 25
[34] = test system: Escherichia coli (ATCC 35218); test: MIC by broth dilution
[35] = test system: Acinetobacter baumannii (ATCC19606); test: MIC by broth dilution
[36] = test system: Klebsiella pneumoniae (ATCC 19606) colistin-resistant strain; test: microbe, parasite or virus in culture; conditions: broth dilution, 24 h; entry 10
Klebsiella pneumoniae = test: MIC by broth dilution; conditions: 24 h, entry 9
[37] = Pseudomonas aeruginosa, ATCC27853, 24 h

O=C1OC2(c3cc(I)c(O)c(I)c3Oc3c2cc(I)c(O)c3I)c2c(Cl)c(Cl)c(Cl)c(Cl)c21 [RB, 4,5,6,7-tetrachloro-2′,4′,5′,7′-tetraiodo-fluorescein]
bactericidal activity [1]: 0.05 to 6.25 µg/mL

C[C@@H](O)[C@H]1C(=O)N2C(C(=O)O)=C(S[C@@H]3CN[C@H](C(=O)N(C)C)C3)[C@H](C)[C@H]12 [Meropenem]
MIC ([2]; Serratia, 24 h, entry 32, read-out: MIC): 0.039 µg/mL (≈ 0.102 µM)
MIC ([2]; Table 1, 24 h): 4000 µg/mL (≈ 10400 µM)
MIC ([3]; Pseudomonas aeruginosa): > 100 µg/mL
MIC [4]: > 100 µg/mL
MIC ([5]; Burkholderia multivorans, entry 20, read-out: MIC): 25 µg/mL (≈ 65.2 µM)
MIC ([6]; Acinetobacter baumannii, ATCCBAA1800, 24 h, entry 7, read-out: MIC): > 100 µg/mL
MIC ([7]; Klebsiella pneumoniae): > 100 µg/mL
MIC [8, 37]: > 100 µg/mL
MIC ([9]; Burkholderia multivorans, read-out: MIC): > 100 µg/mL
MIC ([10]; Salmonella enterica): > 100 µg/mL
MIC [11, 37]: > 100 µg/mL
MIC ([12]; Burkholderia thailandensis, 24 h): > 100 µg/mL
MIC ([13]; Escherichia coli, read-out: MIC): 1.6 µg/mL (≈ 4.17 µM)
MIC [14]: > 100 µg/mL
MIC ([15]; Acinetobacter baumannii, ATCCBAA1800, 24 h): > 100 µg/mL
MIC ([16]; Serratia): 12.5 µg/mL (≈ 32.6 µM)
MIC ([17]; Salmonella enterica): 6.25 µg/mL (≈ 16.3 µM)
reduction of strain (CFU) [18]: 0%
MIC ([19]; Burkholderia thailandensis): 12.5 µg/mL (≈ 32.6 µM)
MIC ([20]; Escherichia coli, ATCC35218, 24 h): 25 µg/mL (≈ 65.2 µM)
MIC ([21]; Acinetobacter baumannii, ATCC19606, 24 h): > 100 µg/mL
MIC ([22]; Escherichia coli): 12.5 µg/mL (≈ 32.6 µM)
MIC ([23]; Proteus mirabilis, entry 30, read-out: MIC): > 200 µg/mL
MIC ([24]; Pseudomonas aeruginosa, entry 18, read-out: MIC): 3.13 µg/mL (≈ 8.16 µM)
MIC ([25]; Klebsiella pneumoniae, entry 11, read-out: MIC): > 100 µg/mL
MIC ([26]; Pseudomonas aeruginosa): 100 µg/mL (≈ 261 µM)
MIC ([27]; Salmonella enterica, entry 26, read-out: MIC): 3.1 µg/mL (≈ 8.08 µM)
MIC ([28]; Pseudomonas aeruginosa, entry 16, read-out: MIC): > 100 µg/mL
MIC ([29]; Burkholderia cepacia, LMG16656, 24 h): 25 µg/mL (≈ 65.2 µM)
MIC ([30]; Pseudomonas aeruginosa, ATCC27853, 24 h, entry 13, read-out: MIC): > 100 µg/mL
MIC ([31]; Salmonella enterica, entry 28, read-out: MIC): 1.6 µg/mL (≈ 4.17 µM)
MIC ([32]; Proteus mirabilis): > 200 µg/mL
MIC ([33]; Burkholderia cepacia, LMG16656, read-out: MIC): 100 µg/mL (≈ 261 µM)
MIC ([34]; Escherichia coli, ATCC35218, 24 h, entry 1, read-out: MIC): < 0.8 µg/mL
MIC ([35]; Acinetobacter baumannii, ATCC19606, 24 h, entry 5, read-out: MIC): 100 µg/mL (≈ 261 µM)

Amikacin
MIC ([2]; 24 h, entry 32): >200 µg/mL
MIC ([3]; broth dilution, entry 17): >100 µg/mL
MIC [36]: 64.0 µg/mL
MIC ([5]; entry 20): 200.0 µg/mL
MIC ([6]; 24 h, entry 7): 64.0 µg/mL
MIC ([7]; broth dilution, entry 12): >100 µg/mL
MIC ([8]; broth dilution, 24 h, entry 14): >100 µg/mL
MIC [9]: >200.0 µg/mL
MIC ([10]; broth dilution, entry 29): >100 µg/mL
MIC ([11]; broth dilution, 24 h, entry 15): >200 µg/mL
MIC [12]: >200 µg/mL
MIC [13]: 1.6 µg/mL
MIC (Klebsiella pneumoniae): 4.0 µg/mL
MIC ([15]; broth dilution, 24 h, entry 8): >100 µg/mL
MIC ([16]; broth dilution, entry 33): >200 µg/mL
MIC ([17]; broth dilution, entry 27): >100 µg/mL
reduction of strain (CFU) [18]: about 3.5%
MIC ([19]; broth dilution, entry 22): 64.0 µg/mL
MIC ([20]; broth dilution, 24 h, entry 2): >100 µg/mL
MIC ([21]; broth dilution, 24 h, entry 6): >100 µg/mL
MIC ([22]; broth dilution, entry 4): 25.0 µg/mL
MIC ([23]; entry 30): >200 µg/mL
MIC ([24]; entry 18): 64.0 µg/mL
MIC ([25]; entry 11): 16.0 µg/mL
MIC ([26]; broth dilution, entry 19): >100 µg/mL
MIC ([27]; entry 26): 1.6 µg/mL
MIC ([28]; entry 16): 32.0 µg/mL
MIC ([29]; broth dilution, 24 h, entry 24): >100 µg/mL
MIC ([30]; 24 h, entry 13): 32.0 µg/mL
MIC ([31]; entry 28): 1.6 µg/mL
MIC ([32]; broth dilution, entry 31): >200 µg/mL
MIC [33]: >200 µg/mL
MIC ([34]; 24 h, entry 1): 3.1 µg/mL
MIC ([35]; 24 h, entry 5): 16.0 µg/mL
